This is an account of results in patent US9499553B2 (CHUGAI SEIYAKU KABUSHIKI KAISHA, priority 2013, dated 2016).

Counter-ions that a name gives are not always drawn. Like-named read-outs stand apart in the source and are kept apart here.

For one assay, the target named is T1, human NaPi-IIb (Homo sapiens, UniProt O95436).
T1 construct: expressed in transfected cells
T1 sequence (O95436 1-690): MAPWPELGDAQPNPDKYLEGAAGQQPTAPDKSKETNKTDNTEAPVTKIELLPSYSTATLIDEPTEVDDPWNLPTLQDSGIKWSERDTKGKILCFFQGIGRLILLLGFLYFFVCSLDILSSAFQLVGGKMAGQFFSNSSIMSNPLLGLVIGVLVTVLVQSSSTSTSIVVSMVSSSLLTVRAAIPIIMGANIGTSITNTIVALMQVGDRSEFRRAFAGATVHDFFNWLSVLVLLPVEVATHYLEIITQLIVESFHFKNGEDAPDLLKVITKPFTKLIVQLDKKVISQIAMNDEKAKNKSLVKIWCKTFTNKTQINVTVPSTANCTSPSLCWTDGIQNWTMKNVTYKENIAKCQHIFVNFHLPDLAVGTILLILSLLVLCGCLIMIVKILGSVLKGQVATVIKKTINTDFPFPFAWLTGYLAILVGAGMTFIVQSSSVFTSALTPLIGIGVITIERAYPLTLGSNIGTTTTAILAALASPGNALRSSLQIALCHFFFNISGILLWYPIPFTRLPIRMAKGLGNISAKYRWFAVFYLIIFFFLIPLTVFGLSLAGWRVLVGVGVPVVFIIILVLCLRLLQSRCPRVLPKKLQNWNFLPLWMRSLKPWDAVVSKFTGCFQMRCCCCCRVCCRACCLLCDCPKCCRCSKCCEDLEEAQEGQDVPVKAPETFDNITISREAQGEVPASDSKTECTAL
The assay is described as follows: Inhibitory effect on 33PO4 uptake into human NaPi-IIb-expressing CHO cells. It is filed as cell-based. The gist of the method: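 Stable human NaPi-IIb CHO line (G418-selected), plated and cultured overnight; ³³PO4 added in buffer A and uptake run at room temperature. Cells washed with ice-cold buffer A, then uptake counted by liquid scintillation.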

A further assay deals with T2, human PiT-2 (Homo sapiens, UniProt Q08357).
T2 construct: expressed in transfected cells; host or cells: CHO cells
T2 sequence (Q08357 1-652): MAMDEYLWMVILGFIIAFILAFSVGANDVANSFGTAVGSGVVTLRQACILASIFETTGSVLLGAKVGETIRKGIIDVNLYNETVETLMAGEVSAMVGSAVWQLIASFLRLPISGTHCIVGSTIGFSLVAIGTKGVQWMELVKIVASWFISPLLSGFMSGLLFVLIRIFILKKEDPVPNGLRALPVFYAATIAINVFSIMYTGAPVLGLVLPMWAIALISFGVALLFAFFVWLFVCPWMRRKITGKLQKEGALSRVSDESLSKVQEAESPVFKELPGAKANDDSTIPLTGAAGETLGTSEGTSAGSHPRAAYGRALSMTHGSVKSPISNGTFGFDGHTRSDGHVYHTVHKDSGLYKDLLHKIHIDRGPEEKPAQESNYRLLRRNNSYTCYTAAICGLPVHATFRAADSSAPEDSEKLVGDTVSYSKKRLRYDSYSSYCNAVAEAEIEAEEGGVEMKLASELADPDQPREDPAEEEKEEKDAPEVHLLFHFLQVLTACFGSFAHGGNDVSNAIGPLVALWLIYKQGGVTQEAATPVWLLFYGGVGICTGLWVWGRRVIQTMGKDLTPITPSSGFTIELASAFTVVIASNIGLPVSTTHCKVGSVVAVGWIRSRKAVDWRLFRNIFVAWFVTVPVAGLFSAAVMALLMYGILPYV
The experiment in a line: Inhibitory effect on 33PO4 uptake into human PiT-2-expressing CHO cells. It is filed as cell-based. Particulars: pH 6.5, read-out: IC50 against 33PO4 uptake into human PiT-2-expressing cells. Here is the method: Test Example 4: Inhibitory Effect on ^33PO4 Uptake into Human PiT-2-Expressing Cell
(§1) CHO cells were transfected with human PiT-2 expression plasmids or empty vectors to prepare human PiT-2-expressing cells and empty vector-expressing cells. The human PiT-2-expressing cells or the empty vector-expressing cells were inoculated to a 96-well plate and incubated overnight in a CO2 incubator. […] After a given time, a 1/20 volume of buffer A containing ^33PO4 was added thereto and reacted at room temperature. After washing with ice-cold buffer A, a liquid scintillator was added to each reaction mixture, and the amount of ^33PO4 uptake was measured using TopCount. The rate of inhibition was determined according to the following expression: Rate (%) of inhibition=(1−(Amount of ^33PO4 uptake in the compound-supplemented well containing the human PiT-2-expressing cells−Amount of ^33PO4 uptake in the compound-supplemented well containing the empty vector-expressing cells)/(Amount of ^33PO4 uptake in the DMSO-supplemented well containing the human PiT-2-expressing cells −Amount of ^33PO4 uptake in the DMSO-supplemented well containing the empty vector-expressing cells))×100

The target of the next assay is T3, human PiT-1 (Homo sapiens, UniProt Q8WUM9).
T3 construct: expressed in transfected cells; host or cells: CHO cells
T3 sequence (Q8WUM9 1-679): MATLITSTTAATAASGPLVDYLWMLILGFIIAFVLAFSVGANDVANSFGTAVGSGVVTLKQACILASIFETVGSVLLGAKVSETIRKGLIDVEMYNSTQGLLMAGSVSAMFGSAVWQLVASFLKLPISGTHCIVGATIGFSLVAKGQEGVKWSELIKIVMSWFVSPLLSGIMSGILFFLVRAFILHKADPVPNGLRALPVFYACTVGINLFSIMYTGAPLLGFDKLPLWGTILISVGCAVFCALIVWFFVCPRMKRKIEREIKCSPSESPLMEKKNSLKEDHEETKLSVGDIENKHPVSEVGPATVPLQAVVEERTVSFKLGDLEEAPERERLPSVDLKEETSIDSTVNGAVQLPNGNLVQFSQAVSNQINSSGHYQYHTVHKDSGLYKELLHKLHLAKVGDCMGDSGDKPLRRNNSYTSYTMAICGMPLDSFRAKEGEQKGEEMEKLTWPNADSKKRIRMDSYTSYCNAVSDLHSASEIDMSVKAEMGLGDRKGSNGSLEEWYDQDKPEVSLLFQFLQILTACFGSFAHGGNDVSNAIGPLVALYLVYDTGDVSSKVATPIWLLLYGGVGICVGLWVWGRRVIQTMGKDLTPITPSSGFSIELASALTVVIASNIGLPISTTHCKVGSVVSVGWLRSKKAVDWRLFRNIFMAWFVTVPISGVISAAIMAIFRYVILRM
The experiment in a line: Inhibitory effect on 33PO4 uptake into human PiT-1-expressing CHO cells. Particulars: compound 0.24, 1.2, 6 or 30 μM, pH 6.5, read-out: IC50 against 33PO4 uptake into human PiT-1-expressing cells. The format is cell-based. As for the experimental part:
Test Example 3: Inhibitory Effect on ^33PO4 Uptake into Human PiT-1-Expressing Cell
as §1, with “PiT-1” for “PiT-2”, “PiT-1-expressing” for “PiT-2-expressing”

The subject of assay [1] is rat small-intestinal brush border membrane vesicles. The experiment in a line: Inhibitory effect on 33PO4 uptake into rat small-intestinal brush border membrane vesicles (rapid filtration method). Particulars: 1 μM test compound; 33PO4 uptake into rat small-intestinal BBMVs, reacted for 60 seconds. It is filed as biochemical. Here is the method: Test Example 1: Inhibitory Effect on ^33PO4 Uptake into Rat Small-Intestinal Brush Border Membrane Vesicles Brush border membrane vesicles (BBMVs) were prepared using the upper region of the small intestine of each Wistar female rat (4-5 weeks old). The preparation of BBMVs was performed according to the method of Murer et al. (Murer […]. Sodium/proton antiport in brush-border-membrane vesicles isolated from rat small intestine and kidney. 1976. J Am Soc Nephrol. 1998 January; 9 (1): 143-50). The ^33PO4 transport activity of the small-intestinal BBMVs was determined by the rapid filtration method. […] Then, ice-cold buffer C (110 mM NaCl, 1 mM KH2PO4, and 10 mM HEPES (pH 7.5)) was added to each reaction mixture, which was immediately suction-filtered through a Millipore filter. The filter was washed with buffer C, and each sample was then dissolved in a liquid scintillator. The amount of ^33PO4 uptake into BBMVs was measured using a liquid scintillation counter.

One may read the IC50 as the point on the concentration scale where inhibition reaches its midpoint. For `CN1[C@@H](C(C)(C)C)C(O)=C(C(=O)Nc2ccc(Cl)cc2-c2ccc(C(F)(F)F)nc2)C(=O)N1Cc1ccc(OCCN2CCOCC2)c(F)c1F` [Example 267, (3S)-3-tert-Butyl-N-[4-chloro-2-[6-(trifluoromethyl)pyridin-3-yl]phenyl]-1-[[2,3-difluoro-4-(2-morpholin-4-ylethoxy)phenyl]methyl]-4-hydroxy-2-methyl-6-oxo-3H-pyridazine-5-carboxamide], the results for the concentration for half-maximal inhibition (IC50) at human NaPi-IIb (read-out: IC50), at human PiT-2 and at human PiT-1 were 7.5 µM, 4.7 µM and 4100 nM, respectively.

Consider `COC[C@@H]1CCCN1CCOc1ccc(CN2C(=O)C(C(=O)Nc3ccc(C(F)(F)F)cc3-c3cc(C(F)(F)F)ncn3)=C(O)C3(CCC3)N2C)c(F)c1F` [Example 345, 6-[[2,3-Difluoro-4-[2-[(2S)-2-(methoxymethyl)pyrrolidin-1-yl]ethoxy]phenyl]methyl]-9-hydroxy-5-methyl-7-oxo-N-[4-(trifluoromethyl)-2-[6-(trifluoromethyl)pyrimidin-4-yl]phenyl]-5,6-diazaspiro[3.5]non-8-ene-8-carboxamide], for which the IC50 on human NaPi-IIb (read-out: IC50) turned out to be 7.7 µM; at human PiT-2, 1.4 µM; on human PiT-1, 1200 nM.

As to `COCCN(C)CCOc1ccc(CN2C(=O)C(C(=O)Nc3ccc(C(F)(F)F)cc3-c3cc(C(F)(F)F)ncn3)=C(O)C3(CCC3)N2C)c(F)c1F` [Example 13, 6-[[2,3-Difluoro-4-[2-[2-methoxyethyl(methyl)amino]ethoxy]phenyl]methyl]-9-hydroxy-5-methyl-7-oxo-N-[4-(trifluoromethyl)-2-[6-(trifluoromethyl)pyrimidin-4-yl]phenyl]-5,6-diazaspiro[3.5]non-8-ene-8-carboxamide], the IC50 on human NaPi-IIb (read-out: IC50) is 7.3 µM; on human PiT-2 it was 2.7 µM; on human PiT-1, 1900 nM.

As to `CN1N(Cc2ccc(OCCCCC(=O)O)c(F)c2F)C(=O)C(C(=O)Nc2ccc(C(F)(F)F)cc2-c2cc(C(F)(F)F)ncn2)=C(O)C12CCCC2` [Example 333, 5-[2,3-Difluoro-4-[[10-hydroxy-6-methyl-8-oxo-9-[[4-(trifluoromethyl)-2-[6-(trifluoromethyl)pyrimidin-4-yl]phenyl]carbamoyl]-6,7-diazaspiro[4.5]dec-9-en-7-yl]methyl]phenoxy]pentanoic acid], the IC50 was found to be 19.5 µM on human NaPi-IIb (read-out: IC50), 10.4 µM on human PiT-2 and 3600 nM on human PiT-1.

In the case of `Cc1c(C#N)ncnc1-c1cc(C(F)(F)F)ccc1NC(=O)C1=C(O)[C@@]2(C)CCCN2N(Cc2ccc(OCCN3CCOCC3)c(F)c2F)C1=O` [Example 22, (4aR)-N-[2-(6-Cyano-5-methylpyrimidin-4-yl)-4-(trifluoromethyl)phenyl]-1-[[2,3-difluoro-4-(2-morpholin-4-ylethoxy)phenyl]methyl]-4-hydroxy-4a-methyl-2-oxo-6,7-dihydro-5H-pyrrolo [1,2-b]pyridazine-3-carboxamide], the IC50 on human NaPi-IIb (read-out: IC50) was 7.9 µM; at human PiT-2 it was 3.2 µM.

As for `CN1N(Cc2ccc(OCC[N+]34CCN(CC3)CC4)c(F)c2F)C(=O)C(C(=O)Nc2ccc(C(F)(F)F)cc2-c2cc(C(F)(F)F)ncn2)=C(O)C12CCCC2` [Example 415, 1-(2-(2,3-Difluoro-4-((10-hydroxy-6-methyl-8-oxo-9-((4-(trifluoromethyl)-2-(6-(trifluoromethyl)pyrimidin-4-yl)phenyl)carbamoyl)-6,7-diazaspiro[4.5]dec-9-en-7-yl)methyl)phenoxy)ethyl)-1,4-diazabicyclo[2.2.2]octan-1-ium formate], the half-inhibitory concentration (IC50) at human NaPi-IIb (read-out: IC50 against 33PO4 uptake into human NaPi-IIb-expressing cells) was determined as 18.5 µM. The “Rate of uptake inhibition (%) (1 μM)” value in assay [1] turned out to be 21%.

On to `C[C@]12CCCN1N(Cc1cccc(F)c1F)C(=O)C(C(=O)Nc1ccc(Br)c(F)c1F)=C2O` [Example 32], for which the IC50 at human NaPi-IIb (read-out: IC50) is 2.8 µM. The “Rate of uptake inhibition (%) (1 μM)” value in assay [1] worked out at 73%.

Regarding `C[C@]12CCCN1N(Cc1cccc(C#N)c1)C(=O)C(C(=O)Nc1ccc(C(F)(F)F)cc1-c1cnc(Cl)c(C#N)c1)=C2O` [Example 51], at human NaPi-IIb (read-out: IC50), the IC50 worked out at 16 µM. The “Rate of uptake inhibition (%) (1 μM)” value in assay [1] stood at 72%.
